Key:
Italian ryegrass = test: Test D preemergence; type: in vivo, Lolium multiflorum; details: Lolium multiflorum, pre-emergence
Description: (§1) Seeds of plant species selected from bluegrass (annual bluegrass, Poa annua), blackgrass (Alopecurus myosuroides), canarygrass (littleseed canarygrass, Phalaris minor), chickweed (common chickweed, Stellaria media), galium (catchweed bedstraw, Galium aparine), bromegrass, downy (downy bromegrass, Bromus tectorum), field poppy (Papaver rhoeas), field violet (Viola arvensis), green foxtail (Setaria viridis), deadnettle (henbit deadnettle, Lamium amplexicaule), Italian ryegrass (Lolium multiflorum), kochia (Kochia scoparia), lambsquarters (Chenopodium album), oilseed rape (Brassica napus), pigweed (Amaranthus retroflexus), chamomile (scentless chamomile, Matricaria inodora), Russian thistle (Salsola kali), speedwell (bird's-eye speedwell, Veronica persica), spring barley (Hordeum vulgare), spring wheat (Triticum aestivum), wild buckwheat (Polygonum convolvulus), wild mustard (Sinapis arvensis), wild oat (Avena fatua), wild radish (Raphanus raphanistrum), windgrass (Apera spica-venti), winter barley (Hordeum vulgare), and winter wheat (Triticum aestivum) were planted into a silt loam soil and treated preemergence with test chemicals formulated in a non-phytotoxic solvent mixture which included a surfactant.
(§2) At the same time, these species were planted in pots containing Redi-Earth® planting medium (Scotts Company, 14111 Scottslawn Road, Marysville, Ohio 43041) comprising spaghnum peat moss, vermiculite, wetting agent and starter nutrients and treated with postemergence applications of the test chemicals formulated in the same manner. Plants ranged in height from 2 to 18 cm (1- to 4-leaf stage). Treated plants and controls were maintained in a controlled growth environment for 7 to 21 days after which time all species were compared to controls and visually evaluated. Plant response ratings, summarized in Table D, are based on a scale of 0 to 100 where 0 is no effect and 100 is complete control. A dash (-) response means no test result.

windgrass [1] = test: Test D postemergence; type: in vivo, Apera spica-venti; details: Apera spica-venti, post-emergence, scale 0 to 100 (0 no effect, 100 complete control), read-out: Plant response rating, Windgrass
Description: as §1, §2

wild radish [2] = test: Test D postemergence; type: in vivo, Raphanus raphanistrum; details: Raphanus raphanistrum, post-emergence, scale 0 to 100 (0 no effect, 100 complete control), read-out: Plant response rating, Radish, Wild
Description: as §1, §2

windgrass [3] = test: Test D preemergence; type: in vivo, Apera spica-venti; details: Apera spica-venti, pre-emergence
Description: as §1, §2

blackgrass = test: Test D preemergence; type: in vivo, Alopecurus myosuroides; details: Alopecurus myosuroides, pre-emergence, scale 0-100, read-out: Plant response rating, Blackgrass
Description: as §1, §2

chickweed = test: Test D preemergence; type: in vivo, Stellaria media; details: Stellaria media, pre-emergence, scale 0-100, read-out: Plant response rating, Chickweed
Description: as §1, §2

wild radish [4] = test: Test D preemergence; type: in vivo, Raphanus raphanistrum; details: Raphanus raphanistrum, pre-emergence
Description: as §1, §2

galium = test: Test D preemergence; type: in vivo, Galium aparine; details: Galium, pre-emergence, scale 0-100, read-out: Plant response rating, Galium
Description: as §1, §2

field poppy = test: Test D preemergence; type: in vivo, Papaver rhoeas; details: Papaver rhoeas, pre-emergence, scale 0-100, read-out: Plant response rating, Field Poppy
Description: as §1, §2

wild mustard = test: Test D preemergence; type: in vivo, Sinapis arvensis; details: Brassica, pre-emergence, scale 0-100, read-out: Plant response rating, Mustard, Wild
Description: as §1, §2

chamomile = test: Test D postemergence; type: in vivo, Matricaria inodora; details: Tripleurospermum inodorum, post-emergence, scale 0 to 100 (0 no effect, 100 complete control), read-out: Plant response rating, Chamomile
Description: as §1, §2

Q: For N#Cc1cccc(Oc2ncc(Cl)cn2)c1-n1cc(Br)cn1 [Compound 52, 2-(4-bromo-1H-pyrazol-1-yl)-3-[(5-chloro-2-pyrimidinyl)oxy]benzonitrile], which pest or weed control at 31 g/ha (Italian ryegrass; 31 g ai/ha, scale 0 (no effect) to 100 (complete control), read-out: Plant response rating, Ryegrass, Italian) is on record?
A: The pest or weed control at 31 g/ha was 0%.

Q: What about the pest or weed control at 62 g/ha (Italian ryegrass; 62 g ai/ha, scale 0-100, read-out: Plant response rating, Ryegrass, Italian) of the same compound?
A: Its pest or weed control at 62 g/ha is 0%.

Q: And the pest or weed control at 125 g/ha (Italian ryegrass; 125 g ai/ha, scale 0-100, read-out: Plant response rating, Ryegrass, Italian)?
A: The pest or weed control at 125 g/ha was 5%.

Q: And the pest or weed control at 250 g/ha (Italian ryegrass; 250 g ai/ha, scale 0-100, read-out: Plant response rating, Ryegrass, Italian)?
A: The pest or weed control at 250 g/ha was 50%.

Q: And the pest or weed control at 31 g/ha (windgrass [1]; 31 g ai/ha)?
A: Its pest or weed control at 31 g/ha is 15%.

Q: And the pest or weed control at 62 g/ha (windgrass [1]; 62 g ai/ha)?
A: Its pest or weed control at 62 g/ha is 20%.

Q: What about the pest or weed control at 125 g/ha (windgrass [1]; 125 g ai/ha) of the same compound?
A: The pest or weed control at 125 g/ha was 25%.

Q: What about the pest or weed control at 250 g/ha (windgrass [1]; 250 g ai/ha) of the same compound?
A: The pest or weed control at 250 g/ha was 40%.

Q: And the pest or weed control at 31 g/ha (wild radish [2]; 31 g ai/ha)?
A: The pest or weed control at 31 g/ha was 65%.

Q: And the pest or weed control at 62 g/ha (wild radish [2]; 62 g ai/ha)?
A: The pest or weed control at 62 g/ha was 70%.

Q: What about the pest or weed control at 125 g/ha (wild radish [2]; 125 g ai/ha) of the same compound?
A: Its pest or weed control at 125 g/ha is 80%.

Q: What about the pest or weed control at 250 g/ha (wild radish [2]; 250 g ai/ha) of the same compound?
A: The pest or weed control at 250 g/ha was 90%.

Q: And the pest or weed control at 31 g/ha (windgrass [3]; 31 g ai/ha, scale 0 (no effect) to 100 (complete control), read-out: Plant response rating, Windgrass)?
A: Its pest or weed control at 31 g/ha is 50%.

Q: What about the pest or weed control at 62 g/ha (windgrass [3]; 62 g ai/ha, scale 0-100, read-out: Plant response rating, Windgrass) of the same compound?
A: The pest or weed control at 62 g/ha was 70%.

Q: What about the pest or weed control at 125 g/ha (windgrass [3]; 125 g ai/ha, scale 0-100, read-out: Plant response rating, Windgrass) of the same compound?
A: Its pest or weed control at 125 g/ha is 100%.

Q: What about the pest or weed control at 250 g/ha (windgrass [3]; 250 g ai/ha, scale 0-100, read-out: Plant response rating, Windgrass) of the same compound?
A: Its pest or weed control at 250 g/ha is 100%.

Q: What about the pest or weed control at 31 g/ha (blackgrass; 31 g ai/ha) of the same compound?
A: Its pest or weed control at 31 g/ha is 5%.

Q: What about the pest or weed control at 62 g/ha (blackgrass; 62 g ai/ha) of the same compound?
A: Its pest or weed control at 62 g/ha is 5%.

Q: What about the pest or weed control at 125 g/ha (blackgrass; 125 g ai/ha) of the same compound?
A: Its pest or weed control at 125 g/ha is 30%.

Q: And the pest or weed control at 250 g/ha (blackgrass; 250 g ai/ha)?
A: The pest or weed control at 250 g/ha was 95%.

Q: What about the pest or weed control at 31 g/ha (chickweed; 31 g ai/ha) of the same compound?
A: The pest or weed control at 31 g/ha was 100%.

Q: What about the pest or weed control at 62 g/ha (chickweed; 62 g ai/ha) of the same compound?
A: The pest or weed control at 62 g/ha was 100%.

Q: And the pest or weed control at 125 g/ha (chickweed; 125 g ai/ha)?
A: The pest or weed control at 125 g/ha was 100%.

Q: And the pest or weed control at 250 g/ha (chickweed; 250 g ai/ha)?
A: Its pest or weed control at 250 g/ha is 100%.

Q: And the pest or weed control at 31 g/ha (wild radish [4]; 31 g ai/ha, scale 0 (no effect) to 100 (complete control), read-out: Plant response rating, Radish, Wild)?
A: Its pest or weed control at 31 g/ha is 30%.

Q: And the pest or weed control at 62 g/ha (wild radish [4]; 62 g ai/ha, scale 0-100, read-out: Plant response rating, Radish, Wild)?
A: Its pest or weed control at 62 g/ha is 80%.

Q: What about the pest or weed control at 125 g/ha (wild radish [4]; 125 g ai/ha, scale 0-100, read-out: Plant response rating, Radish, Wild) of the same compound?
A: Its pest or weed control at 125 g/ha is 95%.

Q: And the pest or weed control at 250 g/ha (wild radish [4]; 250 g ai/ha, scale 0-100, read-out: Plant response rating, Radish, Wild)?
A: The pest or weed control at 250 g/ha was 100%.

Q: And the pest or weed control at 31 g/ha (galium; 31 g ai/ha)?
A: The pest or weed control at 31 g/ha was 10%.

Q: And the pest or weed control at 62 g/ha (galium; 62 g ai/ha)?
A: The pest or weed control at 62 g/ha was 20%.

Q: And the pest or weed control at 125 g/ha (galium; 125 g ai/ha)?
A: Its pest or weed control at 125 g/ha is 75%.

Q: And the pest or weed control at 250 g/ha (galium; 250 g ai/ha)?
A: The pest or weed control at 250 g/ha was 70%.

Q: And the pest or weed control at 31 g/ha (field poppy; 31 g ai/ha)?
A: Its pest or weed control at 31 g/ha is 95%.

Q: And the pest or weed control at 62 g/ha (field poppy; 62 g ai/ha)?
A: The pest or weed control at 62 g/ha was 80%.

Q: And the pest or weed control at 125 g/ha (field poppy; 125 g ai/ha)?
A: Its pest or weed control at 125 g/ha is 90%.

Q: And the pest or weed control at 250 g/ha (field poppy; 250 g ai/ha)?
A: The pest or weed control at 250 g/ha was 100%.

Q: What about the pest or weed control at 31 g/ha (wild mustard; 31 g ai/ha) of the same compound?
A: The pest or weed control at 31 g/ha was 20%.

Q: What about the pest or weed control at 62 g/ha (wild mustard; 62 g ai/ha) of the same compound?
A: The pest or weed control at 62 g/ha was 55%.

Q: And the pest or weed control at 125 g/ha (wild mustard; 125 g ai/ha)?
A: Its pest or weed control at 125 g/ha is 90%.

Q: What about the pest or weed control at 250 g/ha (wild mustard; 250 g ai/ha) of the same compound?
A: The pest or weed control at 250 g/ha was 100%.

Q: What about the pest or weed control at 31 g/ha (chamomile; 31 g ai/ha) of the same compound?
A: Its pest or weed control at 31 g/ha is 10%.

Q: What about the pest or weed control at 62 g/ha (chamomile; 62 g ai/ha) of the same compound?
A: The pest or weed control at 62 g/ha was 15%.

Q: What about the pest or weed control at 125 g/ha (chamomile; 125 g ai/ha) of the same compound?
A: Its pest or weed control at 125 g/ha is 20%.

Q: And the pest or weed control at 250 g/ha (chamomile; 250 g ai/ha)?
A: The pest or weed control at 250 g/ha was 15%.
